# Results from patent US8735417B2, “Aminopyrimidines as Syk inhibitors” (Merck Sharp & Dohme Corp., priority 2009, dated 2014).
# Molecular target: T1, recombinant human GST-SYK (Homo sapiens, UniProt P43405)
# T1 construct: purchased Carna Biosciences 08-176
# Assay: Homogeneous Time-Resolved Fluorescence (HTRF) assay for the recombinant human SYK enzyme
# Format: biochemical
# Conditions: recombinant human GST-SYK 5 pM, ATP 25 μM, 10-dose titration; read-out: rhSYK Activity (IC50)
# Protocol: Homogeneous Time-Resolved Fluorescence (HTRF) Assay for the Recombinant Human SYK Enzyme:
# A recombinant GST-hSYK fusion protein was used to measure potency of compounds to inhibit human SYK activity. The recombinant human GST-SYK (Carna Biosciences #08-176) (5 pM final concentration) was incubated with various concentrations of the inhibitor diluted in DMSO (0.1% final concentration) for 10 minutes at room temperature in 15 mM Tris-HCl (pH 7.5), 0.01% tween 20, 2 mM DTT in 384 well plate format. To initiate the reaction the biotinylated substrate peptide (250 nM final concentration) that contains the phosphorylation site for SYK was added with magnesium (5 mM final concentration) and ATP (25 μM final concentration). Final volume of the reaction was 10 μL. Phosphorylation of the peptide was allowed to proceed for 45′ at room temperature. To quench the reaction and detect the phosphorylated product, 2 nM of a Europium-atiti-phosphotyrosine antibody (Perkin Elmer #AD0161) and 70 nM SA-APC (Perkin-Elmer #CR130-100) were added together in 15 mM Tris pH 7.5, 40 mM EDTA, 0.01% tween 20. Final volume of the quenching solution was 10 μL. The resulting HTRF signal was measured after 30 minutes on a EnVision (Perkin-Elmer) reader using a time-resolved fluorescence protocol.
row,IC50 [µM],SMILES
1,≤ 0.1,Cc1cc(Nc2nccc(SC(C)C)n2)cc(-c2cnc(N3CCCNC(=O)C3)s2)c1 [Example 219]
2,0.1 to 1,"Cc1ccnc(Nc2cccc(-c3cnc(N4CCC(C(=O)O)CC4)s3)c2)n1 [Example 193, 1-(5-{3-[(4-methylpyrimidin-2-yl)amino]phenyl}-1,3-thiazol-2-yl)piperidine-4-carboxylic acid]"
3,≤ 0.1,"Cc1cc(Nc2nccc(O[C@@H]3CCNC3)n2)cc(-c2cnc(N3CCCNC(=O)C3)s2)c1 [Example 212, 4-{5-[3-methyl-5-({4-[(3R)-pyrrolidin-3-yloxy]pyrimidin-2-yl}amino)phenyl]-1,3-thiazol-2-yl}-1,4-diazepan-2-one]"
4,≤ 0.1,Cc1cc(Nc2nccc(C(C)C)n2)cc(-c2cnc(N3CCCNC(=O)C3)s2)c1 [Example 206]
5,0.1 to 1,"O=C(O)C1CCN(c2nc(-c3cccc(Nc4nccc(C(F)(F)F)n4)c3)cs2)CC1 [Example 229, 1-[4-(3-{[4-(trifluoromethyl)pyrimidin-2-yl]amino}phenyl)-1,3-thiazol-2-yl]piperidine-4-carboxylic acid]"
6,≤ 0.1,CC(=O)Nc1cc(Nc2nccc(C(F)(F)F)n2)cc(-c2cnc(N(C)CCO)s2)c1 [Example 186]
7,≤ 0.1,"O=C1OCCN1c1ncc(-c2cccc(Nc3nccc(C(F)(F)F)n3)c2)s1 [Example 175, 3-[5-(3-{[4-(trifluoromethyl)pyrimidin-2-yl]amino}phenyl)-1,3-thiazol-2-yl]-1,3-oxazolidin-2-one]"
8,≤ 0.1,COc1ccnc(Nc2cc(C)cc(-c3cnc(N4CCCNC(=O)C4)s3)c2)n1 [Example 205]
9,≤ 0.1,"CC(=O)Nc1cc(Nc2nccc(C(F)(F)F)n2)cc(-c2cnc(N3CCCNC(=O)C3)s2)c1 [Example 184, N-(3-[2-(3-oxo-1,4-diazepan-1-yl)-1,3-thiazol-5-yl]-5-{[4-(trifluoromethyl)pyrimidin-2-yl]amino}phenyl)acetamide]"
10,≤ 0.1,CS(=O)(=O)Nc1ncc(-c2cccc(Nc3nccc(C(F)(F)F)n3)c2)s1 [Example 177]
11,≤ 0.1,"Cc1cc(Nc2nccc(C3CCCC3)n2)cc(-c2cnc(N3CCCNC(=O)C3)s2)c1 [Example 197, 4-(5-{3-[(4-cyclopentylpyrimidin-2-yl)amino]-5-methylphenyl}-1,3-thiazol-2-yl)-1,4-diazepan-2-one]"
12,≤ 0.1,CCc1ccnc(Nc2cc(C)cc(-c3cnc(N4CCCNC(=O)C4)s3)c2)n1 [Example 207]
13,≤ 0.1,Nc1cc(Nc2nccc(C(F)(F)F)n2)cc(-c2cnc(NCCO)s2)c1 [Example 190]
14,≤ 0.1,FC(F)(F)c1ccnc(Nc2cccc(-c3cnc(-n4ccnc4)s3)c2)n1 [Example 178]
15,≤ 0.1,"O=C(CO)Nc1ncc(-c2cccc(Nc3nccc(C(F)(F)F)n3)c2)s1 [Example 183, 2-hydroxy-N-[5-(3-{[4-(trifluoromethyl)pyrimidin-2-yl]amino}phenyl)-1,3-thiazol-2-yl]acetamide]"

# The next lines start with the compound.
row,SMILES,IC50 [µM]
1,CN(Cc1ccccn1)c1ncc(-c2cccc(Nc3nccc(C(F)(F)F)n3)c2)s1 [Example 33],≤ 0.1
2,"CSc1ccnc(Nc2cc(C)cc(-c3cnc(N4CCCNC(=O)C4)s3)c2)n1 [4-[5-(3-methyl-5-{[4-(methylsulfanyl)pyrimidin-2-yl]amino}phenyl)-1,3-thiazol-2-yl]-1,4-diazepan-2-one]",≤ 0.1
3,Fc1c(CNc2ncc(-c3cccc(Nc4nccc(C(F)(F)F)n4)c3)s2)cccc1C(F)(F)F [Example 64],0.1 to 1
4,OCCN(Cc1ccccn1)c1ncc(-c2cccc(Nc3nccc(C(F)(F)F)n3)c2)s1 [Example 8],≤ 0.1
5,Cc1cc(Nc2nccc(C(F)(F)F)n2)cc(-c2cnc(NCc3cccnc3)s2)c1 [Example 85],≤ 0.1
6,Cc1cc(Nc2nccc(C(F)(F)F)n2)cc(-c2cnc(N(C)Cc3nc4ccccc4o3)s2)c1 [Example 102],0.1 to 1
7,Cc1cc(Nc2nccc(C(F)(F)F)n2)cc(-c2cnc(NCc3cnn(C)c3)s2)c1 [Example 100],≤ 0.1
8,FC(F)(F)c1ccnc(Nc2cccc(-c3cnc(NCC4CCOCC4)s3)c2)n1 [Example 61],≤ 0.1
9,Cc1cc(Nc2nccc(C(F)(F)F)n2)cc(-c2cnc(NCCc3ncn[nH]3)s2)c1 [Example 106],≤ 0.1
10,O=C1CCN(c2ncc(-c3cccc(Nc4nccc(C(F)(F)F)n4)c3)s2)CCN1 [Example 168],≤ 0.1
11,Cc1cc(Nc2nccc(C(F)(F)F)n2)cc(-c2cnc(NCc3cc(C)n(C)n3)s2)c1 [Example 88],≤ 0.1
12,FC(F)(F)c1ccnc(Nc2cccc(-c3cnc(NCc4cccnc4)s3)c2)n1 [Example 39],≤ 0.1
13,C=CCOC(=O)N1CCN(c2ncc(-c3cccc(Nc4nccc(C(F)(F)F)n4)c3)s2)C(CO)C1 (centres unmarked) [Example 126],0.1 to 1
14,Cc1cc(Nc2nccc(C(F)(F)F)n2)cc(-c2cnc(NCCO)s2)c1 [Example 28],≤ 0.1
15,OCC1CCCN(c2ncc(-c3cccc(Nc4nccc(C(F)(F)F)n4)c3)s2)C1 (centres unmarked) [Example 134],≤ 0.1
16,OCCC1CCCN(c2ncc(-c3cccc(Nc4nccc(C(F)(F)F)n4)c3)s2)C1 (centres unmarked) [Example 142],≤ 0.1
17,CN(c1ncc(-c2cccc(Nc3nccc(C(F)(F)F)n3)c2)s1)C1CCOC1 (centres unmarked) [Example 36],≤ 0.1
18,CC(C)(CO)Nc1ncc(-c2cccc(Nc3nccc(C(F)(F)F)n3)c2)s1 [Example 23],≤ 0.1

row,SMILES,IC50 [µM]
1,Cc1cc(Nc2nccc(C(F)(F)F)n2)cc(-c2cnc(NCCc3ccncc3)s2)c1 [Example 118],≤ 0.1
2,CCC(C)Nc1ncc(-c2cccc(Nc3nccc(C(F)(F)F)n3)c2)s1 (centres unmarked) [Example 42],≤ 0.1
3,Cc1cc(Nc2nccc(C(F)(F)F)n2)cc(-c2cnc(N3CCN(C(=O)c4ccc5cc[nH]c5c4)CC3)s2)c1 [Example 128],≤ 0.1
4,O=C(O)c1cccc(N2CCN(c3ncc(-c4cccc(Nc5nccc(C(F)(F)F)n5)c4)s3)CC2)c1 [Example 125],≤ 0.1
5,FC(F)(F)c1ccnc(Nc2cccc(-c3cnc(NCC4CCCNC4)s3)c2)n1 (centres unmarked) [Example 59],≤ 0.1
6,FC(F)(F)c1ccnc(Nc2cccc(-c3cnc(N4CCCNCC4)s3)c2)n1 [Example 167],≤ 0.1
7,OCC1CCN(c2ncc(-c3cccc(Nc4nccc(C(F)(F)F)n4)c3)s2)CC1 [Example 130],≤ 0.1
8,OCCN(CCO)c1ncc(-c2cccc(Nc3nccc(C(F)(F)F)n3)c2)s1 [Example 3],≤ 0.1
9,COCC(=O)N1CCN(c2ncc(-c3cccc(Nc4nccc(C(F)(F)F)n4)c3)s2)CC1 [Example 127],≤ 0.1
10,Cc1cc(Nc2nccc(C(F)(F)F)n2)cc(-c2cnc(NCCc3c(C)n[nH]c3C)s2)c1 [Example 111],≤ 0.1
11,OCCN(c1ncc(-c2cccc(Nc3nccc(C(F)(F)F)n3)c2)s1)C1CCCC1 [Example 49],0.1 to 1
12,CCCN(CCO)c1ncc(-c2cccc(Nc3nccc(C(F)(F)F)n3)c2)s1 [Example 52],≤ 0.1
13,Cn1cnc(CNc2ncc(-c3cccc(Nc4nccc(C(F)(F)F)n4)c3)s2)c1 [Example 81],≤ 0.1
14,CC(C)(CO)CNc1ncc(-c2cccc(Nc3nccc(C(F)(F)F)n3)c2)s1 [Example 16],≤ 0.1
15,Cc1cc(Nc2nccc(C(F)(F)F)n2)cc(-c2cnc(NCCc3ccco3)s2)c1 [Example 107],≤ 0.1
16,Cc1cc(Nc2nccc(C(F)(F)F)n2)cc(-c2cnc(N(C)Cc3cnn(C)c3)s2)c1 [Example 101],≤ 0.1
17,OCCOCCNc1ncc(-c2cccc(Nc3nccc(C(F)(F)F)n3)c2)s1 [Example 72],≤ 0.1
